Laboratory results from patent publication US10189809B2, “SGC stimulators” (Ironwood Pharmaceuticals, Inc., priority 2010, dated 2019).

What was measured:
[1] = biological target: soluble guanylate cyclase (sGC) (Homo sapiens (Human), UniProt Q02108+Q02153); test: sGC-HEK-cGMP assay run with SNP incubation (HEK WC assay); assay type: cell-based; conditions: for Emax at 10 µM: read-out: HEK WC Assay (% Emax at 10 uM/with 10 uM SNP); for Emax at 30 µM: read-out: HEK WC Assay (% Emax at 30 uM/with 10 uM SNP)
Method in brief: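 EC50 values derive from concentration-response curves of intracellular cGMP in HEK293 cells, which express sGC endogenously. Compound and sodium nitroprusside were co-incubated 10 min at 37 °C after a 15-min 0.5 mM IBMX step, with 0.1 M HCl lysis and 1% DMSO vehicle.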

[2] = biological target: T1, Human soluble guanylate cyclase enzyme (hsGC) (Homo sapiens (Human), UniProt Q02108+Q02153); test: Purified human sGC enzyme activity assay; assay type: biochemical; conditions: for sGC Enzyme (specific activity at 10 μM) / sGC Enzyme (fold increase at 10 μM without SNP): 10 μM compound; for sGC Enzyme (specific activity at 30 μM) / sGC Enzyme (fold increase at 30 μM without SNP) / sGC Enzyme (fold increase at 30 μM): 30 μM compound; for sGC Enzyme (fold increase at 30 μM): without the addition of SNP
Method in brief: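 Values are fold-change of sGC specific activity, nmoles cGMP per mg enzyme per min, relative to DMSO controls. Reactions: 5 ng human enzyme, 300 μM GTP, 1 mM IBMX, 2 mM MgCl2/DTT, 0.1 M Tris pH 8.0, compound 10 or 30 μM final, 37° C for 30 minutes, methanol quench. cGMP read against a 0.078-10 μM final standard curve.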

[3] = biological target: T1, Human soluble guanylate cyclase enzyme (hsGC); test: Purified human sGC enzyme synergy assay in the presence of 1 μM sodium nitroprusside (SNP); assay type: biochemical; conditions: for sGC Enzyme (fold increase at 10 μM with SNP): 10 μM compound; for sGC Enzyme (fold increase at 30 μM with SNP): 30 μM compound
Method: Human soluble guanylate cyclase enzyme (hsGC) obtained from Enzo Inc. (P/N: ALX-201-177) was used to evaluate the activity of test compounds. The assay reactions contained 0.1 M Tris (pH 8.0), 0.5 mg/mL BSA (pH 8.0), 2 mM DTT, 2 mM MgCl2, 300 μM GTP, 1 mM 3-isobutyl-1-methylxanthine (IBMX) and 5 ng human soluble guanylate cyclase enzyme. Test compounds in DMSO were then added (2 μL, 10 or 30 μM final concentration) and incubated (200 μL, 96-well plate format) at 37° C. for 30 minutes. The controls were carried out using 2 μL DMSO. After the 30 minute incubation, the reaction was stopped with the addition of 200 μL of cold methanol. The plate was then centrifuged at 3,200 rpm for 10 minutes at room temperature. Supernatants (200 μL) were collected and transferred to a new 96 well plate for analysis.
An 8 point cGMP (Sigma-Aldrich P/N: G6129) standard curve was prepared in assay buffer ranging from 0.156-20 μM. Samples for the cGMP standard curve were then diluted with an equal volume of methanol resulting in final cGMP concentrations of 0.078-10 μM.
The cGMP standard curve was generated using GraphPad Prism Software.
Calculations: Specific Activity was determined by the amount of cGMP formed (nmoles) per mg of sGC per min. Enzyme “fold-change” was calculated by dividing Specific Activity for test compounds by Specific Activity of DMSO controls.
Enzyme assays were performed as described above, but was done in the presence of 1 μM sodium nitroprusside (SNP).

soluble guanylate cyclase (sGC), sequence (Q02153 whole entry): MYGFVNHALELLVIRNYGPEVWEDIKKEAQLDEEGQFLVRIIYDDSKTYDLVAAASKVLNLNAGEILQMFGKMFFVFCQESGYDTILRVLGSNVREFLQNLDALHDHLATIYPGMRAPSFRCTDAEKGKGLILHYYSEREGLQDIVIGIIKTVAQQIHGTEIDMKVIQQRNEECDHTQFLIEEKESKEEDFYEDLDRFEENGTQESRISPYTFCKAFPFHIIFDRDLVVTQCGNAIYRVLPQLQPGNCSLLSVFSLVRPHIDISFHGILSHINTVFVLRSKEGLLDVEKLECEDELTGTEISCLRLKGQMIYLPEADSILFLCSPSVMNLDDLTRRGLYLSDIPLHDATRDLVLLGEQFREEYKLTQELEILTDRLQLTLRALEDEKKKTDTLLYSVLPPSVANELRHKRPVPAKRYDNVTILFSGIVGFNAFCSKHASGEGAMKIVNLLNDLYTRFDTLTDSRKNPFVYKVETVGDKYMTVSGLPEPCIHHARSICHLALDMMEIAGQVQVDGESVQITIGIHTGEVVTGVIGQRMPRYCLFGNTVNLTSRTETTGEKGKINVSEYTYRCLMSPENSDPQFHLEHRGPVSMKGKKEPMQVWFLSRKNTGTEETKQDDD
soluble guanylate cyclase (sGC), sequence (Q02108 whole entry): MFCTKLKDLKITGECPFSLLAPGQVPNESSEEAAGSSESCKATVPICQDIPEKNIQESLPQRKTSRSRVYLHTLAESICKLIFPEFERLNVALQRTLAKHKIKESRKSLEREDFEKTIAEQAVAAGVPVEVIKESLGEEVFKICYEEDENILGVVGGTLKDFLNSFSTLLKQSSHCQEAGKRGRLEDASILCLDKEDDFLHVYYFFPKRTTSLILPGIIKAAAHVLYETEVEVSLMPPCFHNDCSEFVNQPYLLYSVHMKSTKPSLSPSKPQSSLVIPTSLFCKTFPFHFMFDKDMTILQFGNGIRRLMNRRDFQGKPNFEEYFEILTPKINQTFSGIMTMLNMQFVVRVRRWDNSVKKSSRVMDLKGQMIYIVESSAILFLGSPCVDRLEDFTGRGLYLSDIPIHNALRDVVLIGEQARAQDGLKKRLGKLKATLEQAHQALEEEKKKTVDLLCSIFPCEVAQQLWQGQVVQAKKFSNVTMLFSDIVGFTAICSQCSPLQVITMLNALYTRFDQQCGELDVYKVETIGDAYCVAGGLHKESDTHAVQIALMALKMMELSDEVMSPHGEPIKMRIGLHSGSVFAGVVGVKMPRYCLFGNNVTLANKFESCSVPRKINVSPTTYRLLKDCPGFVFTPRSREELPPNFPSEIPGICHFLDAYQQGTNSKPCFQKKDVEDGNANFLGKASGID
T1 sequence (Q02153 whole entry): as the sequence (Q02153 whole entry) above
T1 sequence (Q02108 whole entry): as the sequence (Q02108 whole entry) above

Fc1ccccc1Cn1nc(-c2ncccn2)cc1-c1ncccn1 [Compound I-13]
Emax at 10 µM [1]: 0 to 10%
Emax at 30 µM [1]: 0 to 10%
sGC Enzyme (specific activity at 10 μM) [2]: B (B = 50 to <100)
sGC Enzyme (fold increase at 10 μM without SNP) [2]: A (A = no increase to <2 fold increase)
sGC Enzyme (specific activity at 30 μM) [2]: C (C = 100 to <200)
sGC Enzyme (fold increase at 30 μM without SNP) [2]: A (A = no increase to <2 fold increase)
sGC Enzyme (fold increase at 10 μM with SNP) ([3]; with 1 μM SNP): A (A = no increase to <2 fold increase)
sGC Enzyme (fold increase at 30 μM with SNP) ([3]; with 1 μM SNP): A (A = no increase to <2 fold increase)

Fc1ccccc1Cn1nc(-c2ccccn2)cc1-c1csc2ccccc12 [Compound I-18]
sGC Enzyme (specific activity at 10 μM) [2]: C (C = 100 to <200)
sGC Enzyme (fold increase at 10 μM without SNP) [2]: A (A = no increase to <2 fold increase)
sGC Enzyme (specific activity at 30 μM) [2]: C (C = 100 to <200)
sGC Enzyme (fold increase at 30 μM without SNP) [2]: A (A = no increase to <2 fold increase)
sGC Enzyme (fold increase at 10 μM with SNP) ([3]; with 1 μM SNP): A (A = no increase to <2 fold increase)
sGC Enzyme (fold increase at 30 μM with SNP) ([3]; with 1 μM SNP): A (A = no increase to <2 fold increase)

Cc1cccc(-c2cc(-c3ccccn3)nn2Cc2ccccc2F)c1 [Compound I-22]
Emax at 10 µM [1]: 0 to 10%
Emax at 30 µM [1]: 0 to 10%
sGC Enzyme (specific activity at 10 μM) [2]: C (C = 100 to <200)
sGC Enzyme (fold increase at 10 μM without SNP) [2]: A (A = no increase to <2 fold increase)
sGC Enzyme (specific activity at 30 μM) [2]: C (C = 100 to <200)
sGC Enzyme (fold increase at 30 μM without SNP) [2]: B (B = 2 to <5 fold increase)
sGC Enzyme (fold increase at 10 μM with SNP) ([3]; with 1 μM SNP): A (A = no increase to <2 fold increase)
sGC Enzyme (fold increase at 30 μM with SNP) ([3]; with 1 μM SNP): A (A = no increase to <2 fold increase)

Cc1ccc(-c2cc(-c3ccccn3)nn2Cc2ccccc2F)cc1 [Compound I-23]
Emax at 10 µM [1]: 0 to 10%
Emax at 30 µM [1]: 0 to 10%
sGC Enzyme (specific activity at 10 μM) [2]: C (C = 100 to <200)
sGC Enzyme (fold increase at 10 μM without SNP) [2]: B (B = 2 to <5 fold increase)
sGC Enzyme (specific activity at 30 μM) [2]: D (D = 200 to <500)
sGC Enzyme (fold increase at 30 μM without SNP) [2]: B (B = 2 to <5 fold increase)
sGC Enzyme (fold increase at 10 μM with SNP) ([3]; with 1 μM SNP): B (B = 2 to <5 fold increase)
sGC Enzyme (fold increase at 30 μM with SNP) ([3]; with 1 μM SNP): B (B = 2 to <5 fold increase)

Cc1ccccc1-c1cc(-c2ccccn2)nn1Cc1ccccc1F [Compound I-24]
sGC Enzyme (specific activity at 10 μM) [2]: C (C = 100 to <200)
sGC Enzyme (fold increase at 10 μM without SNP) [2]: A (A = no increase to <2 fold increase)
sGC Enzyme (specific activity at 30 μM) [2]: C (C = 100 to <200)
sGC Enzyme (fold increase at 30 μM without SNP) [2]: A (A = no increase to <2 fold increase)
sGC Enzyme (fold increase at 10 μM with SNP) ([3]; with 1 μM SNP): A (A = no increase to <2 fold increase)
sGC Enzyme (fold increase at 30 μM with SNP) ([3]; with 1 μM SNP): A (A = no increase to <2 fold increase)

COc1cccc(-c2cc(-c3ccccn3)nn2Cc2ccccc2F)n1 [Compound I-25, 2-(1-(2-fluorobenzyl)-3-(pyridin-2-yl)-1H-pyrazol-5-yl)-6-methoxypyridine]
Emax at 10 µM [1]: 0 to 10%
Emax at 30 µM [1]: 10 to 20%
sGC Enzyme (specific activity at 10 μM) [2]: C (C = 100 to <200)
sGC Enzyme (fold increase at 10 μM without SNP) [2]: A (A = no increase to <2 fold increase)
sGC Enzyme (specific activity at 30 μM) [2]: D (D = 200 to <500)
sGC Enzyme (fold increase at 30 μM without SNP) [2]: A (A = no increase to <2 fold increase)
sGC Enzyme (fold increase at 10 μM with SNP) ([3]; with 1 μM SNP): B (B = 2 to <5 fold increase)
sGC Enzyme (fold increase at 30 μM with SNP) ([3]; with 1 μM SNP): C (C = 5 to <10 fold increase)

Fc1ccccc1Cn1nc(-c2ccccn2)cc1-c1cccs1 [Compound I-35]
Emax at 10 µM [1]: 10 to 20%
Emax at 30 µM [1]: 10 to 20%
sGC Enzyme (specific activity at 10 μM) [2]: D (D = 200 to <500)
sGC Enzyme (fold increase at 10 μM without SNP) [2]: B (B = 2 to <5 fold increase)
sGC Enzyme (specific activity at 30 μM) [2]: D (D = 200 to <500)
sGC Enzyme (fold increase at 30 μM without SNP) [2]: B (B = 2 to <5 fold increase)
sGC Enzyme (fold increase at 10 μM with SNP) ([3]; with 1 μM SNP): B (B = 2 to <5 fold increase)
sGC Enzyme (fold increase at 30 μM with SNP) ([3]; with 1 μM SNP): C (C = 5 to <10 fold increase)

COc1ccccc1-c1cc(-c2ccccn2)nn1Cc1ccccc1F [Compound I-36]
sGC Enzyme (specific activity at 10 μM) [2]: C (C = 100 to <200)
sGC Enzyme (fold increase at 10 μM without SNP) [2]: A (A = no increase to <2 fold increase)
sGC Enzyme (specific activity at 30 μM) [2]: C (C = 100 to <200)
sGC Enzyme (fold increase at 30 μM without SNP) [2]: A (A = no increase to <2 fold increase)
sGC Enzyme (fold increase at 10 μM with SNP) ([3]; with 1 μM SNP): A (A = no increase to <2 fold increase)
sGC Enzyme (fold increase at 30 μM with SNP) ([3]; with 1 μM SNP): A (A = no increase to <2 fold increase)

COc1ccccc1-c1cc(-c2ncccn2)nn1Cc1ccccc1F [Compound I-37]
sGC Enzyme (specific activity at 10 μM) [2]: C (C = 100 to <200)
sGC Enzyme (fold increase at 10 μM without SNP) [2]: A (A = no increase to <2 fold increase)
sGC Enzyme (specific activity at 30 μM) [2]: C (C = 100 to <200)
sGC Enzyme (fold increase at 30 μM without SNP) [2]: A (A = no increase to <2 fold increase)
sGC Enzyme (fold increase at 10 μM with SNP) ([3]; with 1 μM SNP): A (A = no increase to <2 fold increase)
sGC Enzyme (fold increase at 30 μM with SNP) ([3]; with 1 μM SNP): A (A = no increase to <2 fold increase)

COc1cccc(-c2cc(-c3ccccn3)nn2Cc2ccccc2F)c1 [Compound I-38]
sGC Enzyme (specific activity at 10 μM) [2]: C (C = 100 to <200)
sGC Enzyme (fold increase at 10 μM without SNP) [2]: A (A = no increase to <2 fold increase)
sGC Enzyme (specific activity at 30 μM) [2]: C (C = 100 to <200)
sGC Enzyme (fold increase at 30 μM without SNP) [2]: A (A = no increase to <2 fold increase)
sGC Enzyme (fold increase at 10 μM with SNP) ([3]; with 1 μM SNP): A (A = no increase to <2 fold increase)
sGC Enzyme (fold increase at 30 μM with SNP) ([3]; with 1 μM SNP): A (A = no increase to <2 fold increase)

COc1ccc(-c2cc(-c3ccccn3)nn2Cc2ccccc2F)cc1 [Compound I-40]
Emax at 10 µM [1]: 0 to 10%
Emax at 30 µM [1]: 0 to 10%
sGC Enzyme (specific activity at 10 μM) [2]: C (C = 100 to <200)
sGC Enzyme (fold increase at 10 μM without SNP) [2]: A (A = no increase to <2 fold increase)
sGC Enzyme (specific activity at 30 μM) [2]: C (C = 100 to <200)
sGC Enzyme (fold increase at 30 μM without SNP) [2]: A (A = no increase to <2 fold increase)
sGC Enzyme (fold increase at 10 μM with SNP) ([3]; with 1 μM SNP): A (A = no increase to <2 fold increase)
sGC Enzyme (fold increase at 30 μM with SNP) ([3]; with 1 μM SNP): B (B = 2 to <5 fold increase)

Nc1nc(-c2cc(-c3ccon3)n(Cc3ccccc3F)n2)ncc1-c1ccsc1 [Compound I-121]
sGC Enzyme (fold increase at 30 μM) [2]: C (C = 5 to <10 fold increase)
sGC Enzyme (fold increase at 30 μM with SNP) ([3]; with the addition of SNP): D (D = 10 to <30 fold increase)

Nc1nc(-c2cc(-c3ccon3)n(Cc3ccccc3F)n2)ncc1N1CCCC1 [Compound I-129]
sGC Enzyme (fold increase at 30 μM) [2]: B (B = 2 to <5 fold increase)
sGC Enzyme (fold increase at 30 μM with SNP) ([3]; with the addition of SNP): D (D = 10 to <30 fold increase)

N#Cc1cnc(-c2cc(-c3ccon3)n(Cc3ccccc3F)n2)nc1N [Compound I-130]
sGC Enzyme (fold increase at 30 μM) [2]: C (C = 5 to <10 fold increase)
sGC Enzyme (fold increase at 30 μM with SNP) ([3]; with the addition of SNP): D (D = 10 to <30 fold increase)

Nc1nc(-c2cc(-c3ccon3)n(Cc3ccccc3F)n2)ncc1N1CCOCC1 [Compound I-139]
sGC Enzyme (fold increase at 30 μM) [2]: C (C = 5 to <10 fold increase)
sGC Enzyme (fold increase at 30 μM with SNP) ([3]; with the addition of SNP): C (C = 5 to <10 fold increase)
